Laboratory results as given in the supplement of paper PMC10307832.

Assays:
Test in all cases: relative viability (nuclei count vs DMSO), 5 days (fraction); higher = more cells survive
Sunitinib + Vorinostat = compound: CCN(CC)CCNC(=O)c1c(C)[nH]c(/C=C2\C(=O)Nc3ccc(F)cc32)c1C [Sunitinib] + O=C(CCCCCCC(=O)Nc1ccccc1)NO [Vorinostat] (partner 1 µM)
Method in brief: (§1)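 One day after seeding in 1536-well plates, lung cancer cell lines were dosed by pin tool. Dosing was either single-drug or a fixed anchor-drug dose plus five library-drug doses (not always all listed) in √10 steps. After 5 days, nuclei were stained in one fix-and-stain step and counted on 4× images, and relative viability is the nuclei count of treated wells over that of vehicle wells, given as the median of duplicate plates.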

Sunitinib + Linsitinib = compound: CCN(CC)CCNC(=O)c1c(C)[nH]c(/C=C2\C(=O)Nc3ccc(F)cc32)c1C [Sunitinib] + C[C@]1(O)C[C@@H](c2nc(-c3ccc4ccc(-c5ccccc5)nc4c3)c3c(N)nccn32)C1 [Linsitinib] (partner 1 µM)
Method in brief: as §1

Sunitinib + Navitoclax = compound: CCN(CC)CCNC(=O)c1c(C)[nH]c(/C=C2\C(=O)Nc3ccc(F)cc32)c1C [Sunitinib] + CC1(C)CCC(c2ccc(Cl)cc2)=C(CN2CCN(c3ccc(C(=O)NS(=O)(=O)c4ccc(N[C@H](CCN5CCOCC5)CSc5ccccc5)c(S(=O)(=O)C(F)(F)F)c4)cc3)CC2)C1 [Navitoclax] (partner 0.5 µM)
Method in brief: as §1

Sunitinib + Alpelisib = compound: CCN(CC)CCNC(=O)c1c(C)[nH]c(/C=C2\C(=O)Nc3ccc(F)cc32)c1C [Sunitinib] + Cc1nc(NC(=O)N2CCC[C@H]2C(N)=O)sc1-c1ccnc(C(C)(C)C(F)(F)F)c1 [Alpelisib] (partner 2 µM)
Method in brief: as §1

In the case of NCI-H1355, the relative viability (Sunitinib + Vorinostat; first compound 0.02 µM) is reported as 0.638, the relative viability (Sunitinib + Vorinostat; first compound 0.06325 µM) is reported as 0.75 and the relative viability (Sunitinib + Vorinostat; first compound 0.2 µM) is reported as 0.793. For the same cell line, the relative viability (Sunitinib + Vorinostat; first compound 0.6325 µM) was 0.751, the relative viability (Sunitinib + Vorinostat; first compound 2 µM) was 0.678 and the relative viability (Sunitinib + Linsitinib; first compound 0.02 µM) was 0.759. It also gave a relative viability (Sunitinib + Linsitinib; first compound 0.06325 µM) of 0.859, a relative viability (Sunitinib + Linsitinib; first compound 0.2 µM) of 0.874 and a relative viability (Sunitinib + Linsitinib; first compound 0.6325 µM) of 0.829. The relative viability (Sunitinib + Linsitinib; first compound 2 µM) was 0.813, the relative viability (Sunitinib + Navitoclax; first compound 0.02 µM) was 0.841 and the relative viability (Sunitinib + Navitoclax; first compound 0.06325 µM) was 0.961. The relative viability (Sunitinib + Navitoclax; first compound 0.2 µM) was 0.921, the relative viability (Sunitinib + Navitoclax; first compound 0.6325 µM) was 0.923 and the relative viability (Sunitinib + Navitoclax; first compound 2 µM) was 0.983. The relative viability (Sunitinib + Alpelisib; first compound 0.02 µM) was 0.73, the relative viability (Sunitinib + Alpelisib; first compound 0.06325 µM) was 0.848 and the relative viability (Sunitinib + Alpelisib; first compound 0.6325 µM) was 0.829. The relative viability (Sunitinib + Alpelisib; first compound 2 µM) was 0.857.

HOP-62 gave a relative viability (Sunitinib + Vorinostat; first compound 0.02 µM) of 0.675, a relative viability (Sunitinib + Vorinostat; first compound 0.06325 µM) of 0.876 and a relative viability (Sunitinib + Vorinostat; first compound 0.2 µM) of 0.744. For the same cell line, the relative viability (Sunitinib + Vorinostat; first compound 0.6325 µM) was 0.761, the relative viability (Sunitinib + Vorinostat; first compound 2 µM) was 0.838 and the relative viability (Sunitinib + Linsitinib; first compound 0.02 µM) was 0.968. It also gave a relative viability (Sunitinib + Linsitinib; first compound 0.06325 µM) of 1.23, a relative viability (Sunitinib + Linsitinib; first compound 0.2 µM) of 1.18 and a relative viability (Sunitinib + Linsitinib; first compound 0.6325 µM) of 1.1. It also gave a relative viability (Sunitinib + Linsitinib; first compound 2 µM) of 1.11, a relative viability (Sunitinib + Navitoclax; first compound 0.02 µM) of 1.09 and a relative viability (Sunitinib + Navitoclax; first compound 0.06325 µM) of 1.16. The relative viability (Sunitinib + Navitoclax; first compound 0.2 µM) was 1.17, the relative viability (Sunitinib + Navitoclax; first compound 0.6325 µM) was 1.09 and the relative viability (Sunitinib + Navitoclax; first compound 2 µM) was 0.942. It also gave a relative viability (Sunitinib + Alpelisib; first compound 0.02 µM) of 0.964, a relative viability (Sunitinib + Alpelisib; first compound 0.06325 µM) of 0.851 and a relative viability (Sunitinib + Alpelisib; first compound 0.2 µM) of 1.04. It also gave a relative viability (Sunitinib + Alpelisib; first compound 0.6325 µM) of 1.05 and a relative viability (Sunitinib + Alpelisib; first compound 2 µM) of 0.919.

NCI-H2405 gave a relative viability (Sunitinib + Vorinostat; first compound 0.02 µM) of 1.09, a relative viability (Sunitinib + Vorinostat; first compound 0.06325 µM) of 0.991 and a relative viability (Sunitinib + Vorinostat; first compound 0.2 µM) of 1.12. The relative viability (Sunitinib + Vorinostat; first compound 0.6325 µM) was 1.08, the relative viability (Sunitinib + Vorinostat; first compound 2 µM) was 1.04 and the relative viability (Sunitinib + Linsitinib; first compound 0.06325 µM) was 1.02. It also gave a relative viability (Sunitinib + Linsitinib; first compound 0.2 µM) of 0.976, a relative viability (Sunitinib + Linsitinib; first compound 0.6325 µM) of 1.08 and a relative viability (Sunitinib + Linsitinib; first compound 2 µM) of 0.917. It also gave a relative viability (Sunitinib + Navitoclax; first compound 0.02 µM) of 0.985, a relative viability (Sunitinib + Navitoclax; first compound 0.06325 µM) of 0.892 and a relative viability (Sunitinib + Navitoclax; first compound 0.2 µM) of 0.909. The relative viability (Sunitinib + Navitoclax; first compound 0.6325 µM) was 1.14, the relative viability (Sunitinib + Navitoclax; first compound 2 µM) was 0.977 and the relative viability (Sunitinib + Alpelisib; first compound 0.02 µM) was 0.816. For the same cell line, the relative viability (Sunitinib + Alpelisib; first compound 0.06325 µM) was 0.811, the relative viability (Sunitinib + Alpelisib; first compound 0.2 µM) was 0.862 and the relative viability (Sunitinib + Alpelisib; first compound 0.6325 µM) was 1.06. For the same cell line, the relative viability (Sunitinib + Alpelisib; first compound 2 µM) was 0.713.

EPLC-272H showed a relative viability (Sunitinib + Vorinostat; first compound 0.02 µM) of 0.512, a relative viability (Sunitinib + Vorinostat; first compound 0.06325 µM) of 0.479 and a relative viability (Sunitinib + Vorinostat; first compound 0.2 µM) of 0.424. For the same cell line, the relative viability (Sunitinib + Vorinostat; first compound 0.6325 µM) was 0.397, the relative viability (Sunitinib + Vorinostat; first compound 2 µM) was 0.555 and the relative viability (Sunitinib + Linsitinib; first compound 0.02 µM) was 1.27. For the same cell line, the relative viability (Sunitinib + Linsitinib; first compound 0.06325 µM) was 1.1, the relative viability (Sunitinib + Linsitinib; first compound 0.2 µM) was 1.15 and the relative viability (Sunitinib + Linsitinib; first compound 0.6325 µM) was 1.09. The relative viability (Sunitinib + Linsitinib; first compound 2 µM) was 0.93, the relative viability (Sunitinib + Navitoclax; first compound 0.02 µM) was 1.09 and the relative viability (Sunitinib + Navitoclax; first compound 0.06325 µM) was 1.2. For the same cell line, the relative viability (Sunitinib + Navitoclax; first compound 0.2 µM) was 1.38, the relative viability (Sunitinib + Navitoclax; first compound 0.6325 µM) was 1.12 and the relative viability (Sunitinib + Navitoclax; first compound 2 µM) was 0.921. For the same cell line, the relative viability (Sunitinib + Alpelisib; first compound 0.02 µM) was 0.885, the relative viability (Sunitinib + Alpelisib; first compound 0.06325 µM) was 0.668 and the relative viability (Sunitinib + Alpelisib; first compound 0.2 µM) was 1. For the same cell line, the relative viability (Sunitinib + Alpelisib; first compound 0.6325 µM) was 1 and the relative viability (Sunitinib + Alpelisib; first compound 2 µM) was 0.729.

Cell Line NCI-H3122 has a relative viability (Sunitinib + Vorinostat; first compound 0.02 µM) of 0.958, a relative viability (Sunitinib + Vorinostat; first compound 0.06325 µM) of 1.02 and a relative viability (Sunitinib + Vorinostat; first compound 0.2 µM) of 1.03. The relative viability (Sunitinib + Vorinostat; first compound 0.6325 µM) was 1.05, the relative viability (Sunitinib + Vorinostat; first compound 2 µM) was 1.02 and the relative viability (Sunitinib + Linsitinib; first compound 0.02 µM) was 1.02. It also gave a relative viability (Sunitinib + Linsitinib; first compound 0.06325 µM) of 1.07, a relative viability (Sunitinib + Linsitinib; first compound 0.2 µM) of 1.04 and a relative viability (Sunitinib + Linsitinib; first compound 0.6325 µM) of 0.992. For the same cell line, the relative viability (Sunitinib + Linsitinib; first compound 2 µM) was 1.05, the relative viability (Sunitinib + Navitoclax; first compound 0.02 µM) was 0.975 and the relative viability (Sunitinib + Navitoclax; first compound 0.06325 µM) was 1.04. For the same cell line, the relative viability (Sunitinib + Navitoclax; first compound 0.2 µM) was 1.07, the relative viability (Sunitinib + Navitoclax; first compound 0.6325 µM) was 1.04 and the relative viability (Sunitinib + Navitoclax; first compound 2 µM) was 0.983. It also gave a relative viability (Sunitinib + Alpelisib; first compound 0.06325 µM) of 0.894, a relative viability (Sunitinib + Alpelisib; first compound 0.2 µM) of 0.84 and a relative viability (Sunitinib + Alpelisib; first compound 0.6325 µM) of 0.725. It also gave a relative viability (Sunitinib + Alpelisib; first compound 2 µM) of 0.803.

In the case of NCI-H1651, the relative viability (Sunitinib + Vorinostat; first compound 0.02 µM) is reported as 0.514, the relative viability (Sunitinib + Vorinostat; first compound 0.06325 µM) is reported as 0.736 and the relative viability (Sunitinib + Vorinostat; first compound 0.2 µM) is reported as 0.591. For the same cell line, the relative viability (Sunitinib + Vorinostat; first compound 0.6325 µM) was 0.5, the relative viability (Sunitinib + Vorinostat; first compound 2 µM) was 0.514 and the relative viability (Sunitinib + Linsitinib; first compound 0.02 µM) was 0.882. For the same cell line, the relative viability (Sunitinib + Linsitinib; first compound 0.06325 µM) was 1.07, the relative viability (Sunitinib + Linsitinib; first compound 0.2 µM) was 1.09 and the relative viability (Sunitinib + Linsitinib; first compound 0.6325 µM) was 0.998. For the same cell line, the relative viability (Sunitinib + Linsitinib; first compound 2 µM) was 0.96, the relative viability (Sunitinib + Navitoclax; first compound 0.02 µM) was 0.922 and the relative viability (Sunitinib + Navitoclax; first compound 0.06325 µM) was 1.09. For the same cell line, the relative viability (Sunitinib + Navitoclax; first compound 0.2 µM) was 1.19, the relative viability (Sunitinib + Navitoclax; first compound 0.6325 µM) was 1.08 and the relative viability (Sunitinib + Navitoclax; first compound 2 µM) was 1.15. The relative viability (Sunitinib + Alpelisib; first compound 0.02 µM) was 0.738, the relative viability (Sunitinib + Alpelisib; first compound 0.06325 µM) was 0.969 and the relative viability (Sunitinib + Alpelisib; first compound 0.2 µM) was 1.17. For the same cell line, the relative viability (Sunitinib + Alpelisib; first compound 0.6325 µM) was 1.02 and the relative viability (Sunitinib + Alpelisib; first compound 2 µM) was 0.991.

Cell Line SK-MES-1 has a relative viability (Sunitinib + Vorinostat; first compound 0.02 µM) of 1.07, a relative viability (Sunitinib + Vorinostat; first compound 0.06325 µM) of 1.09 and a relative viability (Sunitinib + Vorinostat; first compound 0.2 µM) of 1.24. The relative viability (Sunitinib + Vorinostat; first compound 0.6325 µM) was 1.29, the relative viability (Sunitinib + Vorinostat; first compound 2 µM) was 1.08 and the relative viability (Sunitinib + Linsitinib; first compound 0.02 µM) was 0.982. For the same cell line, the relative viability (Sunitinib + Linsitinib; first compound 0.06325 µM) was 1.1, the relative viability (Sunitinib + Linsitinib; first compound 0.2 µM) was 1.12 and the relative viability (Sunitinib + Linsitinib; first compound 0.6325 µM) was 1.08. For the same cell line, the relative viability (Sunitinib + Linsitinib; first compound 2 µM) was 1.03, the relative viability (Sunitinib + Navitoclax; first compound 0.02 µM) was 1.18 and the relative viability (Sunitinib + Navitoclax; first compound 0.06325 µM) was 1.34. The relative viability (Sunitinib + Navitoclax; first compound 0.2 µM) was 1.43, the relative viability (Sunitinib + Navitoclax; first compound 0.6325 µM) was 1.3 and the relative viability (Sunitinib + Navitoclax; first compound 2 µM) was 1.3. For the same cell line, the relative viability (Sunitinib + Alpelisib; first compound 0.02 µM) was 0.885, the relative viability (Sunitinib + Alpelisib; first compound 0.06325 µM) was 1.02 and the relative viability (Sunitinib + Alpelisib; first compound 0.2 µM) was 0.86. It also gave a relative viability (Sunitinib + Alpelisib; first compound 0.6325 µM) of 1.02 and a relative viability (Sunitinib + Alpelisib; first compound 2 µM) of 0.927.

HCC-366 was tested, and the relative viability (Sunitinib + Vorinostat; first compound 0.02 µM) was 0.326, the relative viability (Sunitinib + Vorinostat; first compound 0.06325 µM) was 0.388 and the relative viability (Sunitinib + Vorinostat; first compound 0.2 µM) was 0.487. The relative viability (Sunitinib + Vorinostat; first compound 0.6325 µM) was 0.442, the relative viability (Sunitinib + Vorinostat; first compound 2 µM) was 0.468 and the relative viability (Sunitinib + Linsitinib; first compound 0.02 µM) was 0.512. For the same cell line, the relative viability (Sunitinib + Linsitinib; first compound 0.06325 µM) was 0.619, the relative viability (Sunitinib + Linsitinib; first compound 0.2 µM) was 0.606 and the relative viability (Sunitinib + Linsitinib; first compound 0.6325 µM) was 0.628. It also gave a relative viability (Sunitinib + Linsitinib; first compound 2 µM) of 0.571, a relative viability (Sunitinib + Navitoclax; first compound 0.02 µM) of 0.963 and a relative viability (Sunitinib + Navitoclax; first compound 0.06325 µM) of 1.06. It also gave a relative viability (Sunitinib + Navitoclax; first compound 0.6325 µM) of 1.05, a relative viability (Sunitinib + Navitoclax; first compound 2 µM) of 0.971 and a relative viability (Sunitinib + Alpelisib; first compound 0.02 µM) of 0.353. For the same cell line, the relative viability (Sunitinib + Alpelisib; first compound 0.06325 µM) was 0.466, the relative viability (Sunitinib + Alpelisib; first compound 0.2 µM) was 0.656 and the relative viability (Sunitinib + Alpelisib; first compound 0.6325 µM) was 0.528. The relative viability (Sunitinib + Alpelisib; first compound 2 µM) was 0.431.
